Laboratory results reported in patent US20260021046A1, “LIPID NANOPARTICLE AND PHARMACEUTICAL COMPOSITION” (NATIONAL UNIVERSITY CORPORATION HOKKAIDO UNIVERSITY, priority 2022, published 2026).

How the values were obtained:
[1] = tested on: activated hepatic stellate cell line LX-2; assay: EGFP mRNA delivery and transfection screening by FACS; format: cell-based; details: LX-2 cells; EGFP mRNA lipid nanoparticles, 250 ng mRNA per well
Experimental: Fourteen types of lipid nanoparticles prepared were screened with activated hepatic stellate cell line LX-2 (Merck (Germany) and hepatocyte line FL83B (ATCC, USA).
Twenty-four hours prior to the experiment, cells were seeded in 6-well plates at 1×10^5 cells/well and incubated at 37° C. The medium was aspirated and the cells were washed with (−) PBS and then treated with lipid nanoparticles encapsulating EGFP mRNA (TriLink BioTechnologies, USA) in 1.5 ml of growth medium for 24 hours. The amount of mRNA per well was 250 ng. Cells were then washed with (−) PBS and incubated in fresh medium for an additional 21 hours. The median fluorescence intensity of EGFP and the percentage of transfected cells were evaluated by fluorescence activated cell sorting (FACS) using a flow cytometer (Cytoflex, Beckman Coulter, USA).

SMO mRNA = assay: In vivo SMO mRNA knockdown in liver tissue by qRT-PCR; set-up: species or system mice; details: SMO-siRNA lipid nanoparticles, 0.5 mg/kg RNA iv, 24 hours, versus HEPES buffer control
Experimental: TAA-induced liver fibrosis model mice were prepared in the same manner as in Example 1, and SMO-siRNA-encapsulated lipid nanoparticles were intravenously administered to the mice via the tail vein so that the amount of RNA per kg of body weight was 0.5 mg/kg. 24 hours after the administration, the mouse livers were collected. The ratio of the amount of SMO mRNA to the amount of GAPDH mRNA in the liver tissue was confirmed by qRT-PCR. The SMO gene is expressed only in hepatic stellate cells in the liver.
Next, a lipid composition containing CL15H6 and SMO-siRNA were mixed in different ratios to prepare lipid nanoparticles with different nitrogen/phosphate (N/P) ratios. Specifically, lipid nanoparticles were prepared with N/P ratios of 0.5, 1, 2, 4, 8, 12, 16, and 20. The prepared lipid nanoparticles were intravenously administered to mice with liver fibrosis so that the amount of RNA per kg of body weight was 0.5 mg/kg, and the ratio of the amount of SMO mRNA to the amount of GAPDH mRNA in the liver tissue was confirmed 24 hours later.
Next, the relationship between the dosage amount of SMO-siRNA and the ratio of the amount of SMO mRNA to the amount of GAPDH mRNA in the liver tissue was examined. For comparison, the relationship between the dosage amount of control siRNA (siCtrl) and the ratio of SMO mRNA to GAPDH mRNA in hepatic stellate cells was also examined.
Lipid nanoparticles encapsulating a mixture of the above SMO-siRNA and TGFβ1-siRNA at a ratio of 1:1 were prepared by using CL15H6, the above SMO-siRNA (SEQ ID NOs: 1 and 2) targeting the mRNA of the SMO gene and the TGFβ1-siRNA (SEQ ID NOS: 3 and 4) targeting the mRNA of the TGFβ1 gene and having the sequence shown in Table 4 below. The prepared lipid nanoparticles were intravenously administered to mice with liver fibrosis so that each of the amounts of SMO-siRNA and of TGFβ1-siRNA per kg of body weight was 0.25 mg/kg, and 24 hours later, the ratios of the amounts of SMO mRNA and of TGFβ1 mRNA to the amount of GAPDH mRNA in the liver tissue was confirmed.

[2] = Average particle size, PDI, zeta potential (dynamic light scattering) and RNA encapsulation efficiency (RiboGreen) of lipid nanoparticles; format: physicochemical
Experimental: The average particle size, particle size distribution, and zeta potential of the lipid nanoparticles were measured using a Zetasizer Nano ZS (Malvern Instruments Ltd, UK) by dynamic light scattering and the form of lipid nanoparticle was measured using a transmission electron-microscope as described in NPL 12. The efficiency of mRNA encapsulation was estimated by RiboGreen fluorometry as described in NPL 13. Although the respective values vary depending on the type of pH-sensitive cationic lipid, the composition of the lipids constituting the lipid nanoparticles, the preparation conditions of the lipid nanoparticles, and the like, the average particle size of the lipid nanoparticles was in the range of 80 to 350 nm, the PDI was in the range of 0.05 to 0.4, the zeta potential was in the range of −16 to +5 mV, and the efficiency of mRNA encapsulation was 75 to 95%. • [NPL 12] Mahmoud A. Younis, et al., “A Multifunctional Lipid-Based Nanodevice for the Highly Specific Codelivery of Sorafenib and Midkine siRNA to Hepatic Cancer Cells”, Molecular Pharmaceutics, Vol. 16, pp. 4031-4044 • [NPL 13] Mahmoud M. Abd Elwakil, et al., “Engineered &-decalactone lipomers bypass the liver to selectively in vivo deliver mRNA to the lungs without targeting ligands”, Materials Horizons, Vol. 8, pp. 2251-2259
The average particle size, particle size distribution, and zeta potential of the lipid nanoparticles were measured in the same manner as in Example 1 to estimate the efficiency of SMO-siRNA encapsulation. The relationship between the flow rate ratio of the aqueous phase to the organic phase, the average particle size, particle size distribution, zeta potential, and SMO-siRNA encapsulation efficiency of the lipid nanoparticles prepared at the same flow rate ratio when CL15H6 was used as the pH-sensitive cationic lipid is shown in Table 3 below. In the subsequent experiments, lipid nanoparticles were prepared at a ratio of 4:1 (aqueous phase: organic phase), which provided the highest encapsulation efficiency, the smallest average particle size, and the smallest PDI.

normal mice = assay: Biological safety in normal mice (serum markers, histopathology); format: in vivo; details: CL15A6 lipid nanoparticles with EGFP mRNA, 2 mg/kg RNA iv, 24 hours
Experimental: In order to exclude the effects of liver fibrosis on hepatic function and tissues, the biosafety of the lipid nanoparticle prepared by using CL15A6 was evaluated in normal mice. Lipid nanoparticles containing EGFP mRNA were administered intravenously to mice at an amount of 2 mg/kg RNA per kg body weight. Twenty-four hours after the administration, the mice were euthanized, and serum and major organs were collected and analyzed in comparison with control mice treated with HEPES buffer. Aspartate transaminase (AST), alanine aminotransferase (ALT), and creatinine (CRE), which are functional markers of the liver or kidney, in plasma were colorimetrically quantified using a commercially available kit (Sigma-Aldrich), and the results were compared. In addition, the collected organs were fixed, stained with hematoxylin and eosin, and histopathologically evaluated as described in NPL 17. • [NPL 17] Mahmoud A. Younis, et al., “Ultra-small lipid nanoparticles encapsulating sorafenib and midkine-siRNA selectively-eradicate sorafenib-resistant hepatocellular carcinoma in vivo”, J Control Release, Vol. 331, pp. 335-349

[3] = lipid nanoparticles CL15A6:DOPE:cholesterol:DMG-PEG2K 5:3:2:0.3

particle size ([2]; CL15A6 mRNA lipid nanoparticles, DMG-PEG2K 1.5 mol %): 100 nm | Average particle size ([2]; CL15A6 mRNA lipid nanoparticles, N/P ratio increased from 4 to 8): 80 nm | Average particle size [2, 3]: 80 nm | PDI [2, 3]: < 0.1
Structure (SMILES): CCCCC/C=C\C/C=C\CCCCCCCCC(O)(CCCCCCCC/C=C\C/C=C\CCCCC)CCCCOC(=O)C1CCN(C)CC1 [CL15A6, (14z,17z)-5-hydroxy-5-((9z,12z)-octadeca-9,12-dien-1-yl)tricosa-14,17-dien-1-yl 1-methylpiperidine-4-carboxylate]
mRNA delivery efficiency (median fluorescence intensity of EGFP) [1]: high and promising | transfection efficiency (percentage of transfected cells) [1]: promising | amount of SMO mRNA (ratio to GAPDH mRNA) in liver tissue (SMO mRNA): significantly reduced | ALT (normal mice): no significant increases | AST (normal mice): no significant increases | CRE (normal mice): no significant increases | histopathology of major organs (liver, lung, heart, and kidney) (normal mice): no signs of injury
